In patent publication US20160264593A1 (priority 2013, published 2016):
“And” between values parts separate entries of the source, which are not always exact repeats. Identical values can stand only once.

Assays:
PP2A [1] = test: PP2A activity in mouse livers after IP dosing (PP2A immunoprecipitation phosphatase assay, malachite green); type: in vivo, Balb/c mice; conditions: for Average Conc. (group of 3 mice) / Average Relative Activity (group, vehicle = 100) / Conc. (phosphate, single reading, per mouse) / Mean Conc. (per mouse) / Mean Conc. less IgG blank (per mouse) / Relative Conc. (per mouse, to vehicle) / Relative PP2A Activity (per mouse, vehicle = 100): liver
Procedure: (§1) Coomassie (Bradford) Protein Assay Kit (Pierce); PP2A Immunoprecipitation Phosphatase Assay Kit (Millipore); Lysate preparation for low endogenous phosphate: 20 mM imidazole-HCl, 2 mM EDTA, 2 mM EGTA, 1 mM PMSF, 1 mM benzamidine, 10 ug/ml each of aprotinin, leupeptin, antipain, soybean trypsin inhibitor; Normal Mouse IgG (Millipore); Okadaic acid (OA) (Tocris); DMSO (Sigma).
(§2) • Species: Mus Musculus • Strain: Balb/c mice • Age: 6-8 weeks • Sex: female • Body weight: 18-22 g • Vendor: Shanghai Laboratory Animal Center, Shanghai, China; • Number of animals: 66 Balb/c mice plus spare
(§3) The mice were kept in laminar flow rooms at constant temperature and humidity with 4 animals in each cage. • Temperature: 20-25 • Humidity: 40-70%. • Light cycle: 12 hours light and 12 hours dark. • Cages: Made of polycarbonate. The size is 29 cm×17.5 cm×12 cm (L×w×H). The bedding material is wood debris, which is changed once per week. • Diet: Animals had free access to irradiation sterilized dry granule food during the entire study period. • Water: Animals had free access to sterile drinking water. • Cage identification: the identification labels for each cage contained the following information: number of animals, sex, strain, date arrival, treatment, study number, group number, and the starting date of the treatment. • Animal identification: Animals were marked by ear punch.
(§4) All the procedures related to animal handling, care, and the treatment in this study were performed according to guidelines approved by the Institutional Animal Care and Use Committee (IACUC) of WuXi AppTec (Shanghai), following the guidance of the Association for Assessment and Accreditation of Laboratory Animal Care (AAALAC). At the time of routine monitoring, the animals were checked and recorded for any effects of tumor growth on normal behavior such as mobility, food and water consumption (by looking only), body weight gain/loss, eye/hair matting and any other abnormal effect.
(§5) 1. Proper amount of the compounds were weighed. 2. The compounds were dissolved in 4% sterile sodium bicarbonate. 3. All of the compounds should be well dissolved and clear. 4. The compounds should be kept cold once in solution and injected within an hour. 5. The mice were administered intraperitoneally according to their body weights, 20 g mouse was treated with 0.2 ml compound solution. 6. Mice were treated with vehicle and compounds according to Table 1. 7. 3 hours after the dose, 3 mice from each group were euthanized by
(§6) CO2 exposure, and the brains and left lobe of livers were taken and snap-frozen in liquid nitrogen immediately. 6 hours after the dose, the other 3 mice from each group were euthanized by CO2 exposure, and the brains and left lobe of livers were taken and snap-frozen in liquid nitrogen immediately.
(§7) Preparation of malachite green phosphate detection solution Added […] of Solution B to each 1 mL of Solution A, kept at room temperature during use. […] of mixed solution AB is used per assay well.
(§8) Diluted 125 mL Phosphate Standard (Solution C) with 1125 mL of distilled water to make 0.1 mM working solution. The solution was used to prepare a phosphate standard curve as described in the table below.
(§9) 1. 25 μL of each phosphate standards was transferred to wells of microliter plate. 2. Added 100 μL of Malachite Green Solution AB. Mixed carefully without creating bubbles. 3. Cultured for 15 minutes at RT. 4. Measured absorbance at a wavelength between 650 nm in a microliter plate reader.
(§10) 1. Dissolved 1 mg Threonine Phosphopeptide (Catalog #12-219) in 1.10 mL of distilled water to prepare a 1 mM solution. 2. Aliquot peptide solution and stored at ˜20° C. as necessary.
(§11) 1. Mouse brain or liver was homogenized using lysis buffer (25 g/L), centrifuged at 12000 g for 10 minutes at […], and the supernatants were collected. 2. The protein was quantitated, and 240 μg of mouse brain or liver lysate was taken to assay phosphatase activity. 3. […]

PP2A [2] = test: PP2A activity in mouse brains after IP dosing (PP2A immunoprecipitation phosphatase assay, malachite green); type: in vivo, Balb/c mice; set-up: Average Conc. (group of 3 mice): unit not given here; conditions: for Average Conc. (group of 3 mice) / Average Relative Activity (group, vehicle = 100) / Conc. (phosphate, single reading, per mouse) / Mean Conc. (per mouse) / Mean Conc. less IgG blank (per mouse) / Relative Conc. (per mouse, to vehicle) / Relative PP2A Activity (per mouse, vehicle = 100): brain
Procedure: as §1, §2, §3, §4, §5, §6, §7, §8, §9, §10, §11

[3] = high dose IP (mpk: 100 1.5, 113 2.2, 151 1.6, 157 2.0), 3 h
[4] = high dose IP (mpk: 100 1.5, 113 2.2, 151 1.6, 157 2.0), 6 h
[5] = low dose IP (mpk: 100 0.75, 113 1.1, 151 0.8, 153 0.85, 157 1.0), 3 h
[6] = low dose IP (mpk: 100 0.75, 113 1.1, 151 0.8, 153 0.85, 157 1.0), 6 h
[7] = high dose IP (mpk: 100 1.5, 113 2.2, 151 1.6, 153 1.7, 157 2.0), 3 h
[8] = high dose IP (mpk: 100 1.5, 113 2.2, 151 1.6, 153 1.7, 157 2.0), 6 h

CN1CCN(C(=O)C2C(C(=O)OCC(Cl)(Cl)Cl)[C@H]3CC[C@@H]2O3)CC1 (stereo partly shown) [Compound 113]
Average Conc. (group of 3 mice) (PP2A [1]; [3]): 138.31
Average Relative Activity (group, vehicle = 100) (PP2A [1]; [3]): 35.3
Conc. (phosphate, single reading, per mouse) (PP2A [1]; [3]): 200.67 and 204.55 and 192.25 and 216.22 and 155.1 and 163.31
Mean Conc. (per mouse) (PP2A [1]; [3]): 202.61 and 204.23 and 159.21
Mean Conc. less IgG blank (per mouse) (PP2A [1]; [3]): 152.24 and 153.86 and 108.83
Relative Conc. (per mouse, to vehicle) (PP2A [1]; [3]): 0.39 (2×) and 0.28
Relative PP2A Activity (per mouse, vehicle = 100) (PP2A [1]; [3]): 38.8 and 39.21 and 27.74
Average Conc. (group of 3 mice) (PP2A [1]; [4]): 104.16
Average Relative Activity (group, vehicle = 100) (PP2A [1]; [4]): 26.6
Conc. (phosphate, single reading, per mouse) (PP2A [1]; [4]): 246.88 and 269.98 and 80.17 and 78.45 and 124.87 and 126.82
Mean Conc. (per mouse) (PP2A [1]; [4]): 258.43 and 79.31 and 125.84
Mean Conc. less IgG blank (per mouse) (PP2A [1]; [4]): 208.06 and 28.94 and 75.47
Relative Conc. (per mouse, to vehicle) (PP2A [1]; [4]): 0.53 and 0.07 and 0.19
Relative PP2A Activity (per mouse, vehicle = 100) (PP2A [1]; [4]): 53.13 and 7.39 and 19.27
activity of PP2A in livers as compared with vehicle (statement) (PP2A [1]; high dose IP, 3 h): significantly inhibited
activity of PP2A in livers as compared with vehicle (statement) (PP2A [1]; high dose IP, 6 h post treatment): significantly inhibited
Average Conc. (group of 3 mice) (PP2A [1]; [5]): 179.91
Average Relative Activity (group, vehicle = 100) (PP2A [1]; [5]): 45.9
Conc. (phosphate, single reading, per mouse) (PP2A [1]; [5]): 258.54 and 266.31 and 211.9 and 190.3 and 226.36 and 228.31
Mean Conc. (per mouse) (PP2A [1]; [5]): 262.43 and 201.1 and 227.34
Mean Conc. less IgG blank (per mouse) (PP2A [1]; [5]): 212.05 and 150.73 and 176.96
Relative Conc. (per mouse, to vehicle) (PP2A [1]; [5]): 0.54 and 0.38 and 0.45
Relative PP2A Activity (per mouse, vehicle = 100) (PP2A [1]; [5]): 54.04 and 38.41 and 45.1
Average Conc. (group of 3 mice) (PP2A [1]; [6]): 212.74
Average Relative Activity (group, vehicle = 100) (PP2A [1]; [6]): 54.3
Conc. (phosphate, single reading, per mouse) (PP2A [1]; [6]): 229.82 and 254.44 and 279.7 and 291.58 and 266.31 and 256.81
Mean Conc. (per mouse) (PP2A [1]; [6]): 242.13 and 285.64 and 261.56
Mean Conc. less IgG blank (per mouse) (PP2A [1]; [6]): 191.76 and 235.27 and 211.19
Relative Conc. (per mouse, to vehicle) (PP2A [1]; [6]): 0.49 and 0.6 and 0.54
Relative PP2A Activity (per mouse, vehicle = 100) (PP2A [1]; [6]): 48.97 and 60.08 and 53.93
activity of PP2A in livers as compared with vehicle (statement) (PP2A [1]; low dose IP, 3 h): significantly inhibited
activity of PP2A in livers as compared with vehicle (statement) (PP2A [1]; low dose IP, 6 h): significantly inhibited
Average Conc. (group of 3 mice) (PP2A [2]; [7]): 892.56
Average Relative Activity (group, vehicle = 100) (PP2A [2]; [7]): 60.76
Conc. (phosphate, single reading, per mouse) (PP2A [2]; [7]): 1058.59 and 1029.91 and 726.72 and 714.92 and 925.07 and 938.33
Mean Conc. (per mouse) (PP2A [2]; [7]): 1044.25 and 720.82 and 931.70
Mean Conc. less IgG blank (per mouse) (PP2A [2]; [7]): 1037.88 and 714.45 and 925.33
Relative Conc. (per mouse, to vehicle) (PP2A [2]; [7]): 0.71 and 0.49 and 0.64
Relative PP2A Activity (per mouse, vehicle = 100) (PP2A [2]; [7]): 70.65 and 48.63 and 62.99
Average Conc. (group of 3 mice) (PP2A [2]; [8]): 897.74
Average Relative Activity (group, vehicle = 100) (PP2A [2]; [8]): 64.36
Conc. (phosphate, single reading, per mouse) (PP2A [2]; [8]): 366.91 and 317.74 and 1221.50 and 1051.60 and 1382.49 and 1084.37
Mean Conc. (per mouse) (PP2A [2]; [8]): 342.32 and 1136.55 and 1233.43
Mean Conc. less IgG blank (per mouse) (PP2A [2]; [8]): 335.96 and 1130.19 and 1227.07
Relative Conc. (per mouse, to vehicle) (PP2A [2]; [8]): 0.24 and 0.82 and 0.89
Relative PP2A Activity (per mouse, vehicle = 100) (PP2A [2]; [8]): 24.09 and 81.03 and 87.97
activity of PP2A in brains (statement) (PP2A [2]; high dose IP, 3 h): most potent
Average Conc. (group of 3 mice) (PP2A [2]; [5]): 1540.65
Average Relative Activity (group, vehicle = 100) (PP2A [2]; [5]): 104.88
Conc. (phosphate, single reading, per mouse) (PP2A [2]; [5]): 1602.05 and 1620.37 and 1450.70 and 1578.91 and 1521.79 and 1508.30
Mean Conc. (per mouse) (PP2A [2]; [5]): 1611.21 and 1514.81 and 1515.05
Mean Conc. less IgG blank (per mouse) (PP2A [2]; [5]): 1604.84 and 1508.44 and 1508.68
Relative Conc. (per mouse, to vehicle) (PP2A [2]; [5]): 1.10 and 1.04 (2×)
Relative PP2A Activity (per mouse, vehicle = 100) (PP2A [2]; [5]): 109.24 and 102.68 and 102.70
Average Conc. (group of 3 mice) (PP2A [2]; [6]): 1212.05
Average Relative Activity (group, vehicle = 100) (PP2A [2]; [6]): 86.90
Conc. (phosphate, single reading, per mouse) (PP2A [2]; [6]): 1379.36 and 1456.24 and 1108.96 and 1143.66 and 1072.56 and 1149.69
Mean Conc. (per mouse) (PP2A [2]; [6]): 1417.80 and 1126.31 and 1111.12
Mean Conc. less IgG blank (per mouse) (PP2A [2]; [6]): 1411.44 and 1119.94 and 1104.76
Relative Conc. (per mouse, to vehicle) (PP2A [2]; [6]): 1.02 and 0.81 and 0.80
Relative PP2A Activity (per mouse, vehicle = 100) (PP2A [2]; [6]): 101.19 and 80.29 and 79.21
